Source: patent publication US10577378B2, “EIF4A-inhibiting compounds and methods related thereto” (eFFECTOR Therapeutics, Inc., priority 2015, dated 2020)
Where a name gives a salt, the structure may show the parent alone.

system: MDA-MB-231 human breast cancer cells; experiment: Cell proliferation assay (CellTiter-Glo, 72 hours treatment); type: cell-based; details: Homo sapiens; MDA-MB-231 cells, 72 hours at 37° C., CellTiter-Glo; read-out: MDA-MB-231 cell proliferation assay (IC50)
Outline: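 MDA-MB-231 cells seeded at 2,500 cells/well, treated next day with compound or DMSO vehicle for 72 h at 37 °C. Proliferation read by CellTiter-Glo; IC50 from sigmoidal non-linear regression, binned as +++ (<100 nM), ++ (100–1000 nM), + (>1000 nM).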

CN(C)C(=O)[C@H]1[C@@H](O)[C@@]2(O)c3c(Cl)cncc3O[C@@]2(c2ccc(Br)cc2)[C@@H]1c1ccccc1 (racemic) [97F, Rac-(4bS,5R,6R,7S,7aR)-7a-(4-bromophenyl)-4-chloro-4b,5-dihydroxy-N,N-dimethyl-7-phenyl-4b,6,7,7a-tetrahydro-5H-cyclopenta[4,5]furo[2,3-c]pyridine-6-carboxamide] and COc1cncc2c1[C@]1(O)[C@H](O)[C@H](C(=O)N3CC(F)(F)C3)[C@@H](c3ccccc3)[C@]1(c1ccc(Br)cc1)O2 (racemic) [121F, Rac-((4bS,5R,6R,7S,7aR)-7a-(4-bromophenyl)-4b,5-dihydroxy-4-methoxy-7-phenyl-4b,6,7,7a-tetrahydro-5H-cyclopenta[4,5]furo[2,3-c]pyridin-6-yl)(3,3-difluoroazetidin-1-yl)methanone] fall in the same range of IC50: 100 to 1000 nM for the first, 100 to 1000 nM for the second.

Compared with COc1cncc2c1[C@]1(O)[C@@H](CO)C[C@@H](c3ccccc3)[C@]1(c1ccc(CN)cc1)O2 (racemic) [234F, rac-(4bR,5R,7S,7aR)-7a-(4-(aminomethyl)phenyl)-5-(hydroxymethyl)-4-methoxy-7-phenyl-5,6,7,7a-tetrahydro-4bH-cyclopenta[4,5]furo[2,3-c]pyridin-4b-ol], COc1cncc2c1[C@]1(O)[C@H](O)[C@H](CN(C)C)[C@@H](c3ccccc3)[C@]1(c1ccc(C#N)cc1)O2 (single isomer, unassigned) [66F] is lower in IC50: greater than 1000 nM for the first, less than 100 nM for the second. The second is the more potent here.

COc1nc(Cl)cc2c1[C@]1(O)[C@H](O)[C@H](CN3CCOCC3)[C@@H](c3ccccc3)[C@]1(c1ccc(C#N)cc1)O2 (racemic) [152F, Rac-4-((5aR,6S,7S,8R,8aS)-3-chloro-8,8a-dihydroxy-1-methoxy-7-(morpholinomethyl)-6-phenyl-6,7,8,8a-tetrahydro-5aH-cyclopenta[4,5]furo[3,2-c]pyridin-5a-yl)benzonitrile] and COc1nc(Cl)cc2c1[C@]1(O)[C@H](O)[C@H](CN3CCCC3)[C@@H](c3ccccc3)[C@]1(c1ccc(C#N)cc1)O2 (racemic) [158Fb, Rac-4-((5aR,6S,7S,8R,8aS)-3-chloro-8,8a-dihydroxy-1-methoxy-6-phenyl-7-(pyrrolidin-1-ylmethyl)-6,7,8,8a-tetrahydro-5aH-cyclopenta[4,5]furo[3,2-c]pyridin-5a-yl)benzonitrile] cannot be ordered by IC50: less than 100 nM for the first, less than 100 nM for the second.

CCN(CC)C[C@H]1[C@@H](O)[C@@]2(O)c3c(cc(C#N)nc3OC)O[C@@]2(c2ccc(C#N)cc2)[C@@H]1c1ccccc1 (racemic) [159Fc, Rac-(5aR,6S,7S,8R,8aS)-5a-(4-cyanophenyl)-7-((diethylamino)methyl)-8,8a-dihydroxy-1-methoxy-6-phenyl-5a,7,8,8a-tetrahydro-6H-cyclopenta[4,5]furo[3,2-c]pyridine-3-carbonitrile] and CCN(CC)C[C@H]1[C@@H](O)[C@@]2(O)c3c(OC)cncc3O[C@@]2(c2ccc(C#N)cc2)[C@@H]1c1ccccc1 (single isomer, unassigned) [73F] cannot be ordered by IC50: less than 100 nM for the first, less than 100 nM for the second.

Compared with COc1cncc2c1[C@]1(O)[C@H](O)[C@H](CNCc3ccccc3)[C@@H](c3ccccc3)[C@]1(c1ccc(C#N)cc1)O2 (racemic) [77F, Rac-4-((4bS,5R,6S,7S,7aR)-6-((benzylamino)methyl)-4b,5-dihydroxy-4-methoxy-7-phenyl-4b,5,6,7-tetrahydro-7aH-cyclopenta[4,5]furo[2,3-c]pyridin-7a-yl)benzonitrile], COc1cncc2c1[C@]1(O)[C@H](O)[C@H](CNCC(F)F)[C@@H](c3ccccc3)[C@]1(c1ccc(C#N)cc1)O2 (single isomer, unassigned) [115F] is higher in IC50: less than 100 nM for the first, 100 to 1000 nM for the second. The first is the more potent here.

First: COc1cncc2c1[C@]1(O)[C@H](O)[C@H](CN(C)CC(F)F)[C@@H](c3ccccc3)[C@]1(c1ccc(C#N)cc1)O2 (single isomer, unassigned) [112F]
Second: COCCNC[C@H]1[C@@H](O)[C@@]2(O)c3c(OC)cncc3O[C@@]2(c2ccc(C#N)cc2)[C@@H]1c1ccccc1 [263F, 4-((4bS,5R,6S,7S,7aR)-4b,5-dihydroxy-4-methoxy-6-(((2-methoxyethyl)amino)methyl)-7-phenyl-4b,5,6,7-tetrahydro-7aH-cyclopenta[4,5]furo[2,3-c]pyridin-7a-yl)benzonitrile hydrochloride]
The IC50 of the first is higher: 100 to 1000 nM for the first, less than 100 nM for the second.

First: O[C@H]1C[C@@H](c2ccccc2)[C@]2(c3ccc(Br)cc3)Oc3cc(Cl)cnc3[C@]12O (racemic) [130F, Rac-(5aR,6S,8S,8aS)-5a-(4-bromophenyl)-3-chloro-6-phenyl-5a,6,7,8-tetrahydro-8aH-cyclopenta[4,5]furo[3,2-b]pyridine-8,8a-diol]
Second: NC[C@H]1C[C@@H](c2ccccc2)[C@]2(c3ccc(Br)cc3)Oc3cc(Cl)cnc3[C@]12O (racemic) [174F, Rac-(5aR,6S,8R,8aR)-8-(aminomethyl)-5a-(4-bromophenyl)-3-chloro-6-phenyl-5a,6,7,8-tetrahydro-8aH-cyclopenta[4,5]furo[3,2-b]pyridin-8a-ol]
The IC50 of the first is higher: greater than 1000 nM for the first, less than 100 nM for the second. The second is the more potent here.

Compared with COc1cncc2c1[C@]1(O)[C@H](O)[C@H](S(C)(=O)=O)[C@@H](c3ccccc3)[C@]1(c1ccc(C#N)cc1)O2 (single isomer, unassigned) [102F], COc1cncc2c1[C@]1(O)[C@H](O)[C@H](CN3CCC3)[C@@H](c3ccccc3)[C@]1(c1ccc(C#N)cc1)O2 (racemic) [71F, Rac-4-((4bS,5R,6S,7S,7aR)-6-(azetidin-1-ylmethyl)-4b,5-dihydroxy-4-methoxy-7-phenyl-4b,5,6,7-tetrahydro-7aH-cyclopenta[4,5]furo[2,3-c]pyridin-7a-yl)benzonitrile] is lower in IC50: 100 to 1000 nM for the first, less than 100 nM for the second.

First: N#Cc1ccc([C@@]23Oc4cc(Cl)cnc4[C@]2(O)[C@H](O)[C@H](S(=O)(=O)N2CCCC2)[C@H]3c2ccccc2)cc1 (single isomer, unassigned) [83F]
Second: COc1cnc2c(c1)O[C@@]1(c3ccc(C#N)cc3)[C@H](c3ccccc3)[C@@H](C(=O)N(C)C)[C@@H](O)[C@@]21O (single isomer, unassigned) [6F]
The IC50 of the first is lower: less than 100 nM for the first, 100 to 1000 nM for the second.

First: COc1cncc2c1[C@]1(O)[C@H](O)[C@H](C(=O)NCC(F)F)[C@@H](c3ccccc3)[C@]1(c1ccc(C(F)(F)F)cc1)O2 (racemic) [285F, Rac-(4bS,5R,6R,7S,7aR)—N-(2,2-difluoroethyl)-4b,5-dihydroxy-4-methoxy-7-phenyl-7a-(4-(trifluoromethyl)phenyl)-4b,6,7,7a-tetrahydro-5H-cyclopenta[4,5]furo[2,3-c]pyridine-6-carboxamide]
Second: COc1cncc2c1[C@]1(O)[C@H](O)[C@H](C(=O)N3CCOCC3)[C@@H](c3ccccc3)[C@]1(c1ccc(Br)cc1)O2 (racemic) [87F, Rac-((4bS,5R,6R,7S,7aR)-7a-(4-bromophenyl)-4b,5-dihydroxy-4-methoxy-7-phenyl-4b,6,7,7a-tetrahydro-5H-cyclopenta[4,5]furo[2,3-c]pyridin-6-yl)(morpholino)methanone]
The IC50 of the first is higher: 100 to 1000 nM for the first, less than 100 nM for the second.

COc1nc(C#N)cc2c1[C@]1(O)[C@H](O)[C@H](CN3CCCC3)[C@@H](c3ccccc3)[C@]1(c1ccc(C#N)cc1)O2 (racemic) [158Fc, Rac-(5aR,6S,7S,8R,8aS)-5a-(4-cyanophenyl)-8,8a-dihydroxy-1-methoxy-6-phenyl-7-(pyrrolidin-1-ylmethyl)-5a,7,8,8a-tetrahydro-6H-cyclopenta[4,5]furo[3,2-c]pyridine-3-carbonitrile] and COc1nc(Cl)cc2c1[C@]1(O)[C@H](O)[C@H](CN3CC(C(F)F)C3)[C@@H](c3ccccc3)[C@]1(c1ccc(C#N)cc1)O2 (racemic) [217F, rac-4-((5aR,6S,7S,8R,8aS)-3-chloro-7-((3-(difluoromethyl)azetidin-1-yl)methyl)-8,8a-dihydroxy-1-methoxy-6-phenyl-6,7,8,8a-tetrahydro-5aH-cyclopenta[4,5]furo[3,2-c]pyridin-5a-yl)benzonitrile] cannot be ordered by IC50: less than 100 nM for the first, less than 100 nM for the second.

COc1cncc2c1[C@]1(O)[C@H](O)[C@H](CN3CCN(C)CC3)[C@@H](c3ccccc3)[C@]1(c1ccc(C#N)cc1)O2 (racemic) [68F, Rac-4-((4bS,5R,6S,7S,7aR)-4b,5-dihydroxy-4-methoxy-6-((4-methylpiperazin-1-yl)methyl)-7-phenyl-4b,5,6,7-tetrahydro-7aH-cyclopenta[4,5]furo[2,3-c]pyridin-7a-yl)benzonitrile] and COc1cncc2c1[C@]1(O)[C@H](O)[C@H](CN3CCNCC3)[C@@H](c3ccccc3)[C@]1(c1ccc(C#N)cc1)O2 (single isomer, unassigned) [67F] fall in the same range of IC50: 100 to 1000 nM for the first, 100 to 1000 nM for the second.

Compared with COc1cncc2c1[C@]1(O)[C@@H](CN3CC4(COC4)C3)[C@H](CO)[C@@H](c3ccccc3)[C@]1(c1ccc(C#N)cc1)O2 (racemic) [202F, Rac-4-((4bR,5R,6R,7S,7aR)-5-((2-oxa-6-azaspiro[3.3]heptan-6-yl)methyl)-4b-hydroxy-6-(hydroxymethyl)-4-methoxy-7-phenyl-4b,5,6,7-tetrahydro-7aH-cyclopenta[4,5]furo[2,3-c]pyridin-7a-yl)benzonitrile], COc1cncc2c1[C@]1(O)[C@](O)(CN3CCOCC3)C[C@@H](c3ccccc3)[C@]1(c1ccc(C#N)cc1)O2 (racemic) [287F, Rac-4-((4bS,5R,7S,7aR)-4b,5-dihydroxy-4-methoxy-5-(morpholinomethyl)-7-phenyl-4b,5,6,7-tetrahydro-7aH-cyclopenta[4,5]furo[2,3-c]pyridin-7a-yl)benzonitrile] is higher in IC50: less than 100 nM for the first, greater than 1000 nM for the second. The first is the more potent here.

For COc1nc(Cl)cc2c1[C@]1(O)[C@H](O)[C@H](CN)[C@@H](c3ccccc3)[C@]1(c1ccc(Br)cc1)O2 (racemic) [292F, Rac-(5aR,6S,7S,8R,8aS)-7-(aminomethyl)-5a-(4-bromophenyl)-3-chloro-1-methoxy-6-phenyl-5a,6,7,8-tetrahydro-8aH-cyclopenta[4,5]furo[3,2-c]pyridine-8,8a-diol], the IC50 was less than 100 nM.
